Source: paper PMC8639922, “KSHV transactivator-derived small peptide traps coactivators to attenuate MYC and inhibits leukemia and lymphoma cell growth” (Communications Biology, 2021)

System: BC-1 cells
Experiment: MTT assay, deletion and mutant peptides
Assay type: cell-based, human
From the text: Fig. 2 Viral and cellular responses to K-Rta peptide; identification of VGN50. a Protein sequence alignment. Homologous protein sequences were searched for with BLAST and extracted from other gamma-herpesviral homologs. The consensus protein sequence is depicted at the bottom of table. b Peptide design. Deletion peptides were designed based on the consensus sequence in a. The TAT protein sequence was used as a cell-penetrating peptide (CPP) and placed downstream from the K-Rta protein sequence. (d-R) D amino acid arginine, (ORN) ornithine, (bAla) beta alanine. c Sub cellular peptide localization. Cy5-labeled peptide 1 was used to track subcellular localization. Nuclei were visualized by DAPI staining. The scale is indicated in the panel. d MTT assays with deletion and mutant peptides. Peptide listed in b were incubated with BC-1 cells and MTT conversion was measured 48 h after incubation. The OD of mock-treated samples were set as 100%, and OD from detergent-treated cells were set as 0%. The amount of each peptide used for incubation is depicted along the x-axis. Mean percentage viability ±SD were calculated for each treatment group (n = 3 samples). Peptide 1 was renamed as VGN50. e Flow cytometry analyses of cell proliferation and apoptosis induction. Cells were incubated with VGN50 or mutant peptide (three alanine substitutions) for 24 h followed by measurements of percentage cell proliferation (Ki67 staining) and apoptosis induction (Annexin V staining). Standard deviation bars are included. (n = 3) Two-way Anova, followed by Sidak’s multiple comparisons test. f The effect of VGN50 on various cancer cell types. MTT assays were performed with the indicated cell lines treated with various VGN50 concentrations. The OD of mock-treated samples were set as 100%, and OD from detergent-treated cells were set as 0%. Mean percentage viability ±SD was calculated for each treatment (n = 3 samples/treatment). g Viability assay with flow cytometry. Cell viability was measured in triplicate with live/dead staining and the cell killing effects on cancer cells was compared with normal peripheral blood mononuclear cells (PBMC) from three healthy donors. Results are presented as mean percentage viability ±SD (n = 3 samples/group). f, g Ordinary one-way Anova, followed by Tukey’s multiple comparisons test. […]
Leukoreduction system chambers (LRS) from healthy donors were purchased from Vitalant. […] Cell death, apoptosis, and proliferation were analyzed by flow cytometry (BD Acuri) after intracellular staining with anti-humanKi67-Alexa488 (Biolegend, 1:100) along with the isotype control antibody, annexin-V-FITC with 7-AAD staining (Biolegend) according to the manufacture’s protocol, Live/dead Fixable Red Dead Cell staining kit (Invitrogen) according to the manufacture’s protocol, or MTT assay. […]

CC[C@H](C)[C@H](NC(=O)[C@H](CO)NC(=O)[C@H](CO)NC(=O)CCNC(=O)[C@H](CCCNC(=N)N)NC(=O)[C@H](CCCNC(=N)N)NC(=O)[C@H](CCCNC(=N)N)NC(=O)[C@H](CCCN)NC(=O)[C@H](CCCNC(=N)N)NC(=O)[C@H](CCCNC(=N)N)NC(=O)[C@H](CCCCN)NC(=O)[C@H](CCCCN)NC(=O)[C@H](N)CCCNC(=N)N)C(=O)N[C@@H](CC(C)C)C(=O)N[C@@H](CCC(N)=O)C(=O)NCC(=O)N[C@@H](CC(C)C)C(=O)N[C@@H](Cc1ccc(O)cc1)C(=O)N[C@@H](CCC(N)=O)C(=O)N[C@@H](CC(C)C)C(=O)N[C@@H](CC(=O)O)C(=O)N[C@H](C(=O)O)[C@@H](C)O [Pep 2]
Reduction of cell viability (MTT) compared to untreated control (BC-1, 64 μM): 20%

CC[C@H](C)[C@H](NC(=O)[C@H](CO)NC(=O)[C@H](CO)NC(=O)[C@H](CC(C)C)NC(=O)[C@H](CC(C)C)NC(=O)[C@H](C)NC(=O)[C@H](CC(=O)O)NC(=O)CCNC(=O)[C@H](CCCNC(=N)N)NC(=O)[C@H](CCCNC(=N)N)NC(=O)[C@H](CCCNC(=N)N)NC(=O)[C@H](CCCN)NC(=O)[C@H](CCCNC(=N)N)NC(=O)[C@H](CCCNC(=N)N)NC(=O)[C@H](CCCCN)NC(=O)[C@H](CCCCN)NC(=O)[C@H](N)CCCNC(=N)N)C(=O)N[C@@H](CC(C)C)C(=O)N[C@@H](CCC(N)=O)C(=O)NCC(=O)N[C@@H](CC(C)C)C(=O)N[C@@H](Cc1ccc(O)cc1)C(=O)N[C@@H](CCC(N)=O)C(=O)N[C@@H](CC(C)C)C(=O)N[C@@H](CC(=O)O)C(=O)N[C@H](C(=O)O)[C@@H](C)O [Pep 3]
Reduction of cell viability (MTT) compared to untreated control (BC-1, 16 µM): 90%

CC[C@H](C)[C@H](NC(=O)[C@H](CO)NC(=O)[C@H](CO)NC(=O)[C@H](CC(C)C)NC(=O)[C@H](CC(C)C)NC(=O)[C@H](C)NC(=O)[C@H](CC(=O)O)NC(=O)[C@H](CC(=O)O)NC(=O)CCNC(=O)[C@H](CCCNC(=N)N)NC(=O)[C@H](CCCNC(=N)N)NC(=O)[C@H](CCCNC(=N)N)NC(=O)[C@H](CCCN)NC(=O)[C@H](CCCNC(=N)N)NC(=O)[C@H](CCCNC(=N)N)NC(=O)[C@H](CCCCN)NC(=O)[C@H](CCCCN)NC(=O)[C@H](N)CCCNC(=N)N)C(=O)N[C@@H](CC(C)C)C(=O)N[C@@H](CCC(N)=O)C(=O)NCC(=O)N[C@@H](CC(C)C)C(=O)N[C@@H](Cc1ccc(O)cc1)C(=O)O [Pep 4]
Fold less effective compared to Pep 1 and 3 (MTT) (BC-1): ~ 4 fold
